Data on six compounds can be found in DBAASP.

The MIC is the least concentration at which growth counts as inhibited. A low value points to inhibition by little substance.

Some test systems named below: Lactococcus garvieae; Streptococcus iniae; Vibrio alginolyticus; Vibrio harveyi; Vibrio parahaemolyticus; Enterococcus faecalis; Escherichia coli W3110; Staphylococcus aureus; Escherichia coli K91BK; Aspergillus fumigatus; Bibersteinia trehalosi; Klebsiella pneumoniae; Pasteurella multocida.
Test in all cases: ≥ marks a high value that may be exact or a test limit, other limits are often not marked, values filed in µg/mL are converted to µM
Assay [1] has as its system Enterobacter cloacae BCRC 10401.
The subject of assay [2] is Escherichia coli BCRC 10675.
Assay [3] relates to Klebsiella aerogenes BCRC 10370.
Assay [4] relates to Klebsiella oxytoca BCRC 13985.
The test system of assay [5] is Listeria monocytogenes BCRC 14845.
Assay [6] has as its system Pseudomonas aeruginosa BCRC 10944.
Assay [7] has as its system Staphylococcus aureus BCRC 10780.
The test system of assay [8] is Staphylococcus aureus BCRC 10781.
Assay [9] relates to Staphylococcus xylosus BCRC 12930.
Assay [10] deals with Streptococcus equinus BCRC 14729.
The subject of assay [11] is Vibrio alginolyticus BCRC 12829.
The subject of assay [12] is Vibrio anguillarum serotype O1.
For assay [13], the system named is Vibrio parahaemolyticus BCRC 10806.
Assay [14] deals with Yersinia enterocolitica BCRC 13999.
The subject of assay [15] is Pseudomonas aeruginosa PAK.
In assay [16] the test system is Streptococcus gordonii Challis DL1.
Assay [17] has as its system Streptococcus mitis ATCC 903.
Assay [18] relates to Streptococcus mutans UA159.
Assay [19] relates to Streptococcus sanguinis NY101.
The subject of assay [20] is Streptococcus sobrinus ATCC 33478.
Assay [21] concerns Bacillus anthracis Sterne 34F2.
For assay [22], the system named is Bacillus subtilis var. niger ATCC 9372.
Assay [23] concerns Corynebacterium pseudotuberculosis ATCC 19410.
Assay [24] concerns Mannheimia haemolytica Serovar 1.
The test system of assay [25] is Mannheimia haemolytica Serovar 2.
Assay [26] has as its system Mannheimia haemolytica Serovar 6.
Assay [27] relates to Pseudomonas aeruginosa PAO1.
For assay [28], the system named is Salmonella enterica subsp. arizonae.

Converted amounts (≈) assume the structure as drawn.

Turning to `CC[C@H](C)[C@H](NC(=O)[C@H](Cc1ccccc1)NC(=O)[C@H](CCCCN)NC(=O)[C@H](CC(N)=O)NC(=O)[C@@H](NC(=O)[C@H](Cc1ccc(O)cc1)NC(=O)[C@@H](NC(=O)[C@H](Cc1ccc(O)cc1)NC(=O)[C@H](Cc1ccccc1)NC(=O)[C@H](CCCCN)NC(=O)[C@H](CCCCN)NC(=O)[C@H](C)NC(=O)[C@H](CC(C)C)NC(=O)[C@H](CC(N)=O)NC(=O)[C@H](C)NC(=O)CN)[C@@H](C)O)[C@@H](C)CC)C(=O)N[C@@H](CC(N)=O)C(=O)N[C@@H](Cc1ccc(O)cc1)C(=O)N[C@@H](C)C(=O)N[C@@H](Cc1c[nH]c2ccccc12)C(=O)O` [GANLAKKFYTYINKFINYAW], the minimal inhibitory concentration (MIC) in assay [1] was 26.4 µM (≈ 64 µg/mL); in [2], 26.4 µM (≈ 64 µg/mL); in [3], 13.2 µM (≈ 32 µg/mL); in [4], no less than 52.8 µM; in the assay on Lactococcus garvieae, no less than 106 µM; in [5], no less than 52.8 µM. The MIC in [6] was no less than 52.8 µM; in [7], no less than 52.8 µM; in assay [8] it was no less than 52.8 µM; in assay [9] it was 26.4 µM (≈ 64 µg/mL); in assay [10], no less than 106 µM; in the assay on Streptococcus iniae, no less than 106 µM. Further, the minimum inhibitory concentration (MIC) was no less than 52.8 µM in assay [11]; 13.2 µM (≈ 32 µg/mL) in the assay with Vibrio alginolyticus; 13.2 µM (≈ 32 µg/mL) in assay [12]; 3.3 µM (≈ 8 µg/mL) in the assay on Vibrio harveyi; no less than 52.8 µM in assay [13]; 6.6 µM (≈ 16 µg/mL) with Vibrio parahaemolyticus. For the same compound, the MIC in assay [14] is no less than 52.8 µM.
On to `CC[C@H](C)[C@H](NC(=O)[C@H](Cc1ccccc1)NC(=O)[C@H](Cc1cnc[nH]1)NC(=O)[C@H](CCCCN)NC(=O)[C@@H](NC(=O)[C@@H](N)Cc1ccccc1)[C@@H](C)CC)C(=O)N[C@@H](Cc1cnc[nH]1)C(=O)N[C@@H](CCCN=C(N)N)C(=O)N[C@@H](Cc1ccccc1)C(N)=O` [FIKHFIHRF], for which the MIC against Enterococcus faecalis is no less than 402 µM; against Escherichia coli W3110, no less than 402 µM; in assay [15] it was no less than 402 µM; against Staphylococcus aureus, greater than 402 µM; in [16] it was no less than 402 µM; in [17], no less than 402 µM. Also, the minimum inhibitory concentration (MIC) in assay [18], in assay [19] and in assay [20] was no less than 100 µM throughout.
As for `CC(=O)N[C@@H](CCCCN)C(=O)N[C@@H](CCCCN)C(=O)N[C@@H](Cc1c[nH]c2ccccc12)C(=O)N[C@@H](CCCCN)C(=O)N[C@@H](CCCCN)C(=O)N[C@@H](Cc1c[nH]c2ccccc12)C(=O)N[C@@H](CCCCN)C(=O)N[C@@H](CCCCN)C(=O)N[C@@H](Cc1c[nH]c2ccccc12)C(=O)N[C@@H](CCCCN)C(=O)N[C@@H](CCCCN)C(N)=O` [KKWKKWKKWKK], the results for the MIC (in assay [21]; in [22]; in the assay on Escherichia coli K91BK) were no less than 100 µM, no less than 50 µM and no less than 100 µM, respectively.
With `CC[C@H](C)[C@H](NC(=O)[C@@H](NC(=O)[C@H](Cc1cnc[nH]1)NC(=O)[C@@H](NC(=O)[C@@H](NC(=O)[C@H](CCCCN)NC(=O)[C@H](CCCN=C(N)N)NC(=O)[C@@H](NC(=O)[C@@H](NC(=O)[C@@H](N)CCCN=C(N)N)[C@@H](C)CC)[C@@H](C)CC)[C@@H](C)CC)[C@@H](C)CC)[C@@H](C)CC)C(N)=O` [RIIRKIIHII], the MIC against Aspergillus fumigatus came to 31.4 µM (≈ 40 µg/mL); against Bibersteinia trehalosi, 15.7 µM (≈ 20 µg/mL); in [23], 15.7 µM (≈ 20 µg/mL); against Klebsiella pneumoniae it was 9.18 µM (≈ 11.7 µg/mL); in assay [24], 15.7 µM (≈ 20 µg/mL); in assay [25] it was 10.4 µM (≈ 13.3 µg/mL). Further, the MIC in assay [26] was 15.7 µM (≈ 20 µg/mL); with Pasteurella multocida, 15.7 µM (≈ 20 µg/mL); in assay [27], 7.85 µM (≈ 9.99 µg/mL); in [28], 15.7 µM (≈ 20 µg/mL); against Staphylococcus aureus it was greater than 15.7 µM.
In the case of `CC[C@H](C)[C@H](NC(=O)[C@H](Cc1cnc[nH]1)NC(=O)[C@@H](NC(=O)[C@@H](NC(=O)[C@H](CCCCN)NC(=O)[C@H](CCCN=C(N)N)NC(=O)[C@@H](NC(=O)[C@@H](NC(=O)[C@@H](N)CCCN=C(N)N)[C@@H](C)CC)[C@@H](C)CC)[C@@H](C)CC)[C@@H](C)CC)C(=O)N[C@H](C(=O)N[C@@H](CCCCN)C(N)=O)[C@@H](C)CC` [RIIRKIIHIIK], the MIC with Aspergillus fumigatus came to 28.5 µM (≈ 40 µg/mL); in the assay with Bibersteinia trehalosi, 14.3 µM (≈ 20 µg/mL); in [23], 14.3 µM (≈ 20 µg/mL); in the assay on Klebsiella pneumoniae, 9.48 µM (≈ 13.3 µg/mL); in [24], 14.3 µM (≈ 20 µg/mL); in [25], 7.13 µM (≈ 9.99 µg/mL). The MIC in assay [26] is 7.13 µM (≈ 9.99 µg/mL); with Pasteurella multocida, 14.3 µM (≈ 20 µg/mL); in assay [27], 3.56 µM (≈ 5 µg/mL); in [28] it was 14.3 µM (≈ 20 µg/mL); in the assay with Staphylococcus aureus it was greater than 14.3 µM.
Take `NC(=O)CC[C@H](NC(=O)[C@H](Cc1c[nH]c2ccccc12)NC(=O)[C@H](Cc1c[nH]c2ccccc12)NC(=O)[C@H](CC(N)=O)NC(=O)[C@H](Cc1ccc(O)cc1)NC(=O)[C@H](Cc1c[nH]c2ccccc12)NC(=O)[C@@H](N)Cc1c[nH]c2ccccc12)C(=O)N[C@@H](CC(=O)O)C(=O)N[C@@H](Cc1c[nH]c2ccccc12)C(N)=O` [WWYNWWQDW]: the MIC was no less than 340 µM against Enterococcus faecalis; no less than 340 µM in the assay with Escherichia coli W3110; no less than 340 µM in assay [15]; greater than 340 µM in the assay with Staphylococcus aureus; no less than 340 µM in assay [16]; no less than 340 µM in [17]. In addition, the MIC in assay [18], in [19] and in assay [20] was no less than 340 µM each time.
